Values quoted from earlier work as cited in publication PMC12080252, “Daphnia magna as an Alternative Model for (Simultaneous) Bioaccumulation and Chronic Toxicity Assessment—Controlled Exposure Study Indicates High Hazard of Heterocyclic PAHs” (Environmental Science & Technology, 2025).
Where “and” joins values, the source holds several entries; their conditions need not be identical. Equal entries are not always repeated. Where two headings read alike, the source gives them in different places.

What was measured:
[1] = test system: aryl hydrocarbon receptor (AhR); conditions: cited from earlier work
[2] = test system: D. magna or D. pulex; conditions: cited from earlier work; for BCF (M of several values): ref SI refs 4, 5; for accumulation in water fleas: compared with fish
[3] = Table S10; ref SI ref 23 (UK Environment Agency Report); cited from earlier work
[4] = test system: fish; conditions: cited from earlier work
[5] = D. magna or D. pulex, ref SI refs 8, 10

| Compound | log KOW [3] | half-life ([4]; fish, Table S10, ref SI ref 23) | log BCFL5% ([4]; fish, Table S10, ref SI ref 23) | log k2 ([4]; fish, Table S10, ref SI ref 23) | also measured |
| --- | --- | --- | --- | --- | --- |
| c1ccc2cc3ccccc3cc2c1 [anthracene] | – | – | – | – | AhR-mediated toxicity [1]: do not trigger AhR-mediated toxicity; BCF (M of several values) ([2]; D. magna or D. pulex): 944; half-life [2, 5]: 1.18 h; log k2 [2, 5]: -0.23 h-1 |
| Clc1cc2c(oc3c(Cl)c(Cl)c(Cl)c(Cl)c32)c(Cl)c1Cl [1,2,3,4,6,7,8-Heptachloro dibenzofuran] | 7.40 | 127.97 h | 3.16 | -2.27 h-1 | – |
| c1ccc2c(c1)Sc1ccccc1S2 [thianthrene] | – | – | – | – | bioaccumulation in fish [4]: high bioaccumulation in fish |
| Clc1cc2c(c(Cl)c1Cl)Oc1cc(Cl)c(Cl)c(Cl)c1O2 [1,2,3,6,7,8-Hexachloro dibenzo-p-dioxin] | 7.30 | 332.71 h | 3.64 | -2.68 h-1 | – |
| ClC1C(Cl)C(Cl)C(Cl)C(Cl)C1Cl (stereo not shown) [Cyclohexane, 1,2,3,4,5,6-hexachloro-, (1a,2a,3B,4a,5a,6B)-] | 3.72 | 12.60 h | 2.81 | -1.26 h-1 | – |
| c1ccc2c(c1)Oc1ccccc1O2 [dibenzo[1,4]dioxane] | – | – | – | – | bioaccumulation in fish [4]: high bioaccumulation in fish |
| c1ccc2c(c1)ccc1c3ccccc3sc21 [Benzo[b]naphtho[2,1-d]thiophene] | – | – | – | – | accumulation in water fleas [2]: accumulate even more in water fleas |
| Clc1cc2c(oc3cc(Cl)c(Cl)c(Cl)c32)c(Cl)c1Cl [1,2,3,6,7,8-Hexachloro dibenzofuran] | 7.30 | 213.28 h | 3.65 | -2.49 h-1 | – |
| CC1(C)[C@H](C(=O)OCc2cccc(Oc3ccccc3)c2)[C@@H]1C=C(Cl)Cl [cis-Permethrin] | 7.43 | 36.97 h | 2.45 | -1.73 h-1 | – |
| CC(C)C(C(=O)OC(C#N)c1cccc(Oc2ccccc2)c1)c1ccc(Cl)cc1 (stereo not drawn) [Cyano(3-phenoxyphenyl)methyl ester, 4-chloro-alpha-(1-methylethyl) benzeneacetic acid] | 6.20 | 75.62 h | 2.64 | -2.04 h-1 | – |
| Clc1cc2oc3c(Cl)c(Cl)c(Cl)cc3c2cc1Cl [2,3,4,7,8-Pentachloro dibenzofuran] | 6.64 | – | – | – | – |
| COP(=S)(OC)Oc1ccc(Cl)cc1C#N [Methyl isocyanothion] | 3.58 | 14.10 h | 2.09 | -1.31 h-1 | – |
| COP(=S)(OC)Oc1ccc(SC)c(C)c1 [O,O-Dimethyl O-[3-methyl-4-(methylthio)phenyl]ester phosphorothioic acid] | 4.17 | – | – | – | – |
| CC(C)OC(=O)C(C(=O)OC(C)C)=C1SCCS1 [Bis(1-methylethyl)ester, 1,3-dithiolan-2-ylidene propanedioic acid] | 2.88 | 3.65 h and 2.17 h | 1.45 and 1.59 and 1.65 | -0.72 h-1 and -0.49 h-1 | – |
| c1ccc2cc3c(cc2c1)sc1ccccc13 [benzo[b]naphtho[2,3-d]thiophene] | – | – | – | – | bioaccumulation in fish [4]: high bioaccumulation in fish |
| c1ccc2c(c1)Cc1c-2ccc2ccccc12 [Benzofluorene, benzo[a]fluorene] | – | – | – | – | body burden ([2]; D. magna): 17600 µg/kg; log BAF*L5% ([2]; D. magna): 4.09 L kg^-1 lipid |
| Brc1cc(Br)c(-c2ccccc2)c(Br)c1 [2,4,6-tri bromobiphenyl] | 6.03 | – | – | – | – |
| Brc1cc(Br)c(-c2c(Br)cc(Br)cc2Br)c(Br)c1 [2,2',4,4',6,6'-hexa bromobiphenyl] | 7.20 | 2343.03 h | 4.55 | -3.53 h-1 | – |
| Clc1cc2oc3cc(Cl)c(Cl)cc3c2cc1Cl [2,3,7,8-Tetrachlorodibenzo furan] | 6.53 | 57.36 h | 2.89 | -1.92 h-1 | – |
| CCCCCCCCCCC(C)c1ccc(S(=O)(=O)O)cc1 (stereo not shown) [C-12-2-LAS] | 4.71 | 23.77 h | 2.16 | -1.54 h-1 | – |
| c1ccc2c(c1)oc1ccccc12 [dibenzofuran] | – | – | – | – | AhR agonism [1]: weak to moderate aryl hydrocarbon receptor (AhR) agonists |

| Compound | log KOW [3] | half-life ([4]; fish, Table S10, ref SI ref 23) | log BCFL5% ([4]; fish, Table S10, ref SI ref 23) | log k2 ([4]; fish, Table S10, ref SI ref 23) | also measured |
| --- | --- | --- | --- | --- | --- |
| Clc1cc2c(cc1Cl)Oc1c(cc(Cl)c(Cl)c1Cl)O2 [1,2,3,7,8-Pentachlorodibenzo-p-dioxin] | 6.64 | 554.52 h | 3.97 | -2.90 h-1 | – |
| c1ccc2c(c1)ccc1c3ccc4ccccc4c3[nH]c21 [dibenzocarbazole, 13H-dibenzo[a,i]carbazole] | – | – | – | – | half-life [2, 5]: 9 h; log k2 [2, 5]: -1.11 h-1; accumulation in water fleas [2]: accumulate even more in water fleas; bioaccumulation in fish [4]: high bioaccumulation in fish |
| c1cc2cccc3c4cccc5cccc(c(c1)c23)c54 [perylene] | – | – | – | – | half-life [2, 5]: 5.02 h; log k2 [2, 5]: -0.86 h-1 |
| c1ccc2ccccc2c1 [naphthalene] | – | – | – | – | AhR-mediated toxicity [1]: do not trigger AhR-mediated toxicity; half-life [2, 5]: 0.42 h; log k2 ([2]; in vivo): 0.22 h-1 |
| c1ccc2c(c1)ccc1ccccc12 [phenanthrene] | – | – | – | – | AhR-mediated toxicity [1]: do not trigger AhR-mediated toxicity; BCF (M of several values) ([2]; D. magna or D. pulex): 325; log k2 [2, 5]: -0.27 h-1; half-life ([2]; in vivo): 1.29 h; accumulation in fish versus invertebrates (Figure 3B) ([4]; in vivo): accumulated in fish but not in Daphnia and H. azteca |
| Clc1cc2c(oc3c(Cl)c(Cl)c(Cl)cc32)c(Cl)c1Cl [2,3,4,6,7,8-Hexachloro dibenzofuran] | 7.30 | 166.36 h | 3.69 | -2.38 h-1 | – |
| Brc1ccc(Br)c(-c2cc(Br)ccc2Br)c1 [2,2',5,5'-tetra bromobiphenyl] | 6.50 | 1697.50 h | 4.86 | -3.39 h-1 | – |
| c1ccc2cc3c(ccc4ccccc43)cc2c1 [benz[a]anthracene] | 5.76 | – | – | – | – |
| c1ccc2cnccc2c1 [isoquinoline] | – | – | – | – | half-life [2, 5]: 0.04 h; log k2 [2, 5]: 1.26 h-1 |
| CC(C)Oc1cccc(NC(=O)c2ccccc2C(F)(F)F)c1 [N-[3-(1-Methylethoxy)phenyl]-2-(trifluoromethyl) benzamide] | 3.70 | 5.78 h | 1.32 | -0.92 h-1 | – |
| Cc1c2ccccc2cc2ccccc12 [9-methyl-anthracene] | – | – | – | – | half-life [2, 5]: 4.8 h; log k2 [2, 5]: -0.84 h-1 |
| c1ccc2c(c1)Cc1ccccc1O2 [xanthene] | – | – | – | – | AhR agonism [1]: weak to moderate aryl hydrocarbon receptor (AhR) agonists; bioaccumulation in fish ([4]; in vivo): high bioaccumulation in fish |
| COP(=S)(OC)Oc1c(Cl)cc(C)cc1Cl [O-(2,6-Dichloro-4-methylphenyl) O,O-dimethyl ester, Phosphorothioic acid] | 4.56 | 17.33 h | 2.36 | -1.40 h-1 | – |
| CCCCCCCCCCCCCOCCOCCOCCOCCOCCOCCOCCOCCO [Octaethylene glycol monotridecyl ether] | – | 1.65 h | 1.69 | -0.38 h-1 | – |
| c1ccc2c(c1)Cc1ccccc1-2 [fluorene] | – | – | – | – | AhR-mediated toxicity [1]: do not trigger AhR-mediated toxicity |
| c1ccc2ncccc2c1 [quinoline] | – | – | – | – | BCF (M of several values) ([4]; in vivo): 2.5; log BCFL5% ([4]; in vivo): 1.92 |
| CCCCCCCC(CCCC)c1ccc(S(=O)(=O)O)cc1 (stereo not shown) [C-12-5-LAS] | 4.71 | 13.86 h | 1.00 | -1.30 h-1 | – |
| ClC(Cl)=C(c1ccc(Cl)cc1)c1ccc(Cl)cc1 [pp’DDE] | – | – | – | – | BCF (M of several values) ([4]; fish, ref SI refs 4, 7, 12): 54250 |
| c1ccc2nc3ccccc3cc2c1 [acridine] | – | – | – | – | AhR agonism [1]: weak to moderate aryl hydrocarbon receptor (AhR) agonists; half-life [2, 5]: 0.32 h; log k2 [2, 5]: 0.33 h-1 |
| Phenol, 4-nonyl-, branched, | 5.92 | 9.90 h | 2.58 | -1.15 h-1 | – |
| COc1ccc(C(c2ccc(OC)cc2)C(Cl)(Cl)Cl)cc1 [Methoxychlor] | – | – | – | – | accumulation in fish versus invertebrates (Figure 3B) ([4]; in vivo): accumulating in invertebrates but not in fish |
